# Data from PubChem BioAssay AID1963423 (Molecular Pharmacology Branch, DTP, NCI, 2024).
# Test system: 439559-082-T-J2-PDC complex spheroid growth
# Experiment: Anticancer human tumor 439559-082-T-J2-PDC patient-derived colon adenocarcinoma cell line growth inhibition [Asc]
# Conditions: for IC50: curve of first compound; for viability, T/C: stronger effect = lower value
# In short: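 Concentration series start at each agent's clinical Cmax, or at 10 microM when none is established, and drop in half-log steps; agents are applied alone or together to complex spheroids built with HUVEC and hMSC.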
# 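Further: spheroids exposed to agents for 7 days starting day 3 after seeding.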
# 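Wherever viability, T/C is given: percent of DMSO vehicle control viability with 100% = vehicle.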
structure (smiles),measurement,setting,value
Cc1nc(N2CCC3(CC2)COC(C)C3N)c(CO)nc1Sc1ccnc(N)c1Cl (stereo not given) + Cc1c(S(C)(=O)=O)c(-c2cc(F)cc(N3CCN(c4ccc(NS(=O)(=O)c5ccc(NC(CCN6CCC(C(=O)OCCCP(=O)(O)O)CC6)CSc6ccccc6)c(S(=O)(=O)C(F)(F)F)c5)cc4)CC3)c2)c(-c2ccc(Cl)cc2)n1C(C)C,IC50,second compound 0.1 µM,> 3 µM
same,IC50,second compound 0.316 µM,> 3 µM
same,IC50,second compound 1 µM,> 3 µM
same,IC50,second compound 3.16 µM,> 3 µM
same,IC50,second compound 10 µM,2.75 µM
same,"viability, T/C","second compound 0.1 µM, first compound 0.00949 µM",109%
same,"viability, T/C","second compound 0.1 µM, first compound 0.03 µM",115%
same,"viability, T/C","second compound 0.1 µM, first compound 0.0949 µM",100%
same,"viability, T/C","second compound 0.1 µM, first compound 0.3 µM",82.6%
same,"viability, T/C","second compound 0.1 µM, first compound 0.949 µM",86.5%
same,"viability, T/C","second compound 0.1 µM, first compound 3 µM",73.4%
same,"viability, T/C","second compound 0.316 µM, first compound 0.00949 µM",96.4%
same,"viability, T/C","second compound 0.316 µM, first compound 0.03 µM",107%
same,"viability, T/C","second compound 0.316 µM, first compound 0.0949 µM",103%
same,"viability, T/C","second compound 0.316 µM, first compound 0.3 µM",84.5%
same,"viability, T/C","second compound 0.316 µM, first compound 0.949 µM",77.9%
same,"viability, T/C","second compound 0.316 µM, first compound 3 µM",72.4%
same,"viability, T/C","second compound 1 µM, first compound 0.00949 µM",89.5%
same,"viability, T/C","second compound 1 µM, first compound 0.03 µM",97.5%
same,"viability, T/C","second compound 1 µM, first compound 0.0949 µM",98.2%
same,"viability, T/C","second compound 1 µM, first compound 0.3 µM",76.4%
same,"viability, T/C","second compound 1 µM, first compound 0.949 µM",63%
same,"viability, T/C","second compound 1 µM, first compound 3 µM",70.4%
same,"viability, T/C","second compound 3.16 µM, first compound 0.00949 µM",84%
same,"viability, T/C","second compound 3.16 µM, first compound 0.03 µM",95.7%
same,"viability, T/C","second compound 3.16 µM, first compound 0.0949 µM",92.1%
same,"viability, T/C","second compound 3.16 µM, first compound 0.3 µM",63.6%
same,"viability, T/C","second compound 3.16 µM, first compound 0.949 µM",65.5%
same,"viability, T/C","second compound 3.16 µM, first compound 3 µM",56.7%
same,"viability, T/C","second compound 10 µM, first compound 0.00949 µM",74.3%
same,"viability, T/C","second compound 10 µM, first compound 0.03 µM",75%
same,"viability, T/C","second compound 10 µM, first compound 0.0949 µM",72.7%
same,"viability, T/C","second compound 10 µM, first compound 0.3 µM",60.2%
same,"viability, T/C","second compound 10 µM, first compound 0.949 µM",60.3%
same,"viability, T/C","second compound 10 µM, first compound 3 µM",49.1%
